Measured values taken from patent publication US20200163913A1 (Shanghai Huali Biomedical Co., Ltd., priority 2017, published 2020).
Where two headings read alike, the source gives them in different places.

Columns and labels:
[1] = tested on: human cervical cancer cell HeLa; assay: CCK-8 cell proliferation inhibition, HeLa; assay type: cell-based; details: Homo sapiens, HeLa, 72 h, read-out: IC50 Hela
Experimental: (§1) Take more than 90% of live cells for experiments. Cell proliferation inhibition test uses EnoGeneCell™ Counting Kit-8 (CCK-8) cell viability detection kit. Cells are digested and counted to make a cell suspension with a concentration of 1×10^5 cells/mL, 100 μL of cell suspension (1×10^4 cells per well) was added to each well of a 96-well plate; Incubate in a 5% CO2 incubator for 24 hours; add 100 μL of the corresponding drug-containing culture medium to each well, and set a negative control group, a vehicle control group, and a positive control group, with 5 replicates in each group; place the 96-well plate at 37° C.

[2] = tested on: human colon cancer cell HCT-116; assay: CCK-8 cell proliferation inhibition, HCT-116; assay type: cell-based; details: Homo sapiens, HCT-116, 72 h, read-out: IC50 HTC116
Experimental: as §1

[3] = tested on: human liver cancer cell HepG2; assay: CCK-8 cell proliferation inhibition, HepG2; assay type: cell-based; details: Homo sapiens, read-out: IC50 HepG2
Experimental: as §1

[4] = tested on: human gastric cancer cell MKN45; assay: CCK-8 cell proliferation inhibition, MKN45; assay type: cell-based; details: MKN-45, 72 h, read-out: IC50 MKN45
Experimental: as §1

[5] = tested on: human lung cancer cell A549; assay: CCK-8 cell proliferation inhibition, A549; assay type: cell-based; details: read-out: IC50 A549
Experimental: as §1

[6] = tested on: human gastric cancer cell MGC-803; assay: CCK-8 cell proliferation inhibition, MGC-803; assay type: cell-based; details: MGC-803, 72 h, read-out: IC50 MGC803
Experimental: as §1

Arylsulfatase = Arylsulfatase activity assay in vitro; assay type: biochemical
Experimental: Weigh an appropriate amount of the test compound and dissolve it in dimethyl sulfoxide. Dilute it with Tris-HCl buffer for 2, 5, 10, 20, 50, 100, 200, 500, 1000, 2000, 5000, and 10,000 times. Add another dilution gradient to the sample. Arylsulfatase and potassium p-nitrophenyl sulfate are directly dissolved in Tris-HCl buffer. 40 μL of the test compound, 50 μL of arylsulfatase and 50 μL of potassium p-nitrobenzene sulfate were added to a 96-well plate for reaction. A blank control without enzymes and a standard control without test compounds are used. The volume is made up with Tris-HCl buffer. 405 nm detection in the microplate reader, each sample is measured for 40 times, and the interval is 30 s. The representative time node within the time period with good linearity of the absorbance value are selected for data analysis. The measured absorbance value are subtracted from the background value of the blank control and the initial value when the reaction time are 0. For comparison, calculate the inhibition rate at different concentrations, and use the built-in forecast function of excel to predict the IC50 value.

Tubulin = Tubulin polymerization activity test; assay type: biochemical; details: tubulin 4.8 mg/ml, 37° C., 340 nm; read-out: IC50 (Table 3, tubulin polymerization test)
Experimental: Tubulin (4.8 mg/ml) protein was mixed with the test compound in a PEM buffer (100 mM PIPES, 1 mM MgCl2 and 1 mM EGTA) containing 1 mM GTP and 5% glycerol. A SPECTRA MAX 190 (Molecular Device) spectrophotometer was used to monitor the microtubule polymerization at 37° C. by light scattering at 340 nm, and the microtubule polymerization was calculated from the absorbance value. Each sample was tested three times at ten different concentrations.

[7] = p-nitrophenyl sulfate substrate, 405 nm, read-out: IC50 sulfatase

IC50 ([1]; CCK-8, 72 h) [µM]	IC50 ([2]; CCK-8, 72 h) [µM]	IC50 ([3]; HepG2, 72 h, CCK-8, 72 h) [µM]	IC50 ([4]; CCK-8, 72 h) [µM]	IC50 ([5]; A549, CCK-8, 72 h) [µM]	IC50 ([6]; CCK-8, 72 h) [µM]	melting point [°C]	IC50 (Arylsulfatase; read-out: sulfatase inhibitory activity) [µM]	SMILES	IC50 (Arylsulfatase; [7]) [µM]	IC50 ([3]; HepG2, running text) [µM]	IC50 (Tubulin) [µM]	IC50 [1] [µM]	IC50 [2] [µM]	IC50 ([3]; HepG2, 72 h) [µM]	IC50 [4] [µM]	IC50 ([5]; A549, 72 h) [µM]	IC50 [6] [µM]
9.04	3.08	1.14	11.9	15.8	3.61			COc1ccc(CCc2cc(OC)c(OC)c(OC)c2)cc1OS(N)(=O)=O [Compound A1-3, 3,4,5-trimethoxy-4′-methoxy-3′-sulfamate diphenylethane]			72.6						
5.64	9.12	2.63	8.05	4.86	7.63			CCOc1ccc(/C=C/c2cc(OC)c(OC)c(OC)c2)cc1OS(N)(=O)=O [Compound A2-2, (E)-3,4,5-trimethoxy-4′-ethoxy-3′-sulfamate stilbene]									
2.93	10.2	3.65	7.67	1.6	3.59	122.3 to 126.7		CCOc1ccc(CCc2cc(OC)c(OC)c(OC)c2)cc1OS(N)(=O)=O [Compound A2-3, 3,4,5-trimethoxy-4′-ethoxy-3′-sulfamate diphenylethane]									
35.6	26.5	15.9	23.3		71.4	142.5 to 145.8		COc1cc(CCc2ccc(OC(F)F)c(OS(N)(=O)=O)c2)cc(OC)c1OC [Compound A3-3]			86.2						
16.3	9.5	9.36	8.53	11	15.3	107.1 to 110.6	< 0.5	COc1cc(/C=C\c2cccc(OS(N)(=O)=O)c2)cc(OC)c1OC [Compound A4-1, (Z)-3,4,5-trimethoxy-3′-sulfamate stilbene]	0.47								
19	40.3	11.8	27	21.5	25	136.3 to 139.7		COc1cc(/C=C/c2cccc(OS(N)(=O)=O)c2)cc(OC)c1OC [Compound A4-2, (E)-3,4,5-trimethoxy-3′-sulfamate stilbene]									
27.1	52.5	12	17.6	25.8	25.7	108.4 to 120.8		COc1cc(CCc2cccc(OS(N)(=O)=O)c2)cc(OC)c1OC [Compound A4-3, 3,4,5-trimethoxy-3′-sulfamate diphenylethane]									
0.272	3.29	0.752	0.5	0.299	9.56	143.3 to 146.7		COc1ccc(/C=C\c2cc(OC)c(OC)c(OC)c2)cc1NS(N)(=O)=O [Compound A5-1, (Z)-3,4,5-trimethoxy-4′-methoxy-3′-aminosulfamate stilbene]									
0.38	8.64	7.53	6.19	7.42	18.9	157.9 to 161.1		COc1ccc(/C=C/c2cc(OC)c(OC)c(OC)c2)cc1NS(N)(=O)=O [Compound A5-2, (E)-3,4,5-trimethoxy-4′-methoxy-3′-aminosulfamate stilbene]									
2.93	30.6	8.1	8.21	12	73.9	122.5 to 126.5		COc1ccc(CCc2cc(OC)c(OC)c(OC)c2)cc1NS(N)(=O)=O [Compound A5-3, 3,4,5-trimethoxy-4′-methoxy-3′-aminosulfamate diphenylethane]									

Further lines, the compound ahead of its results:

SMILES	IC50 ([1]; CCK-8, 72 h) [µM]	IC50 ([2]; CCK-8, 72 h) [µM]	IC50 ([3]; HepG2, 72 h, CCK-8, 72 h) [µM]	IC50 ([4]; CCK-8, 72 h) [µM]	IC50 ([5]; A549, CCK-8, 72 h) [µM]	IC50 ([6]; CCK-8, 72 h) [µM]	melting point [°C]	IC50 (Arylsulfatase; read-out: sulfatase inhibitory activity) [µM]	IC50 (Arylsulfatase; [7]) [µM]	IC50 ([3]; HepG2, running text) [µM]	IC50 (Tubulin) [µM]	IC50 [1] [µM]	IC50 [2] [µM]	IC50 ([3]; HepG2, 72 h) [µM]	IC50 [4] [µM]	IC50 ([5]; A549, 72 h) [µM]	IC50 [6] [µM]
COc1ccc(/C=C\c2cc(OC)c(OC)c(OC)c2)cc1O [CA-4, (Z)-3,4,5-trimethoxy-3′-hydroxy-4′-methoxystilbene, reference compound]	11.3	9	16	3.44	5.99	1.76											
COc1ccc(/C=C/c2cc(OC)c(OC)c(OC)c2)cc1OS(N)(=O)=O [Compound A1-2, (E)-3,4,5-trimethoxy-4′-methoxy-3′-sulfamate stilbene]	4.5	1.57	0.87	10.5	11.4	2.98			12.9	< 1	55.7						
CNS(=O)(=O)Oc1cc(/C=C\c2cc(OC)c(OC)c(OC)c2)ccc1OC [Compound A1-4, (Z)-3,4,5-trimethoxy-4′-methoxy-3′-N-methylsulfamate stilbene]							118.4 to 121.6					0.317	16.8	0.263	0.369	0.269	5.05
COc1ccc(/C=C\c2cc(OC)c(OC)c(OC)c2)cc1OS(=O)(=O)N(C)C [Compound A1-5, (Z)-3,4,5-trimethoxy-4′-methoxy-3′-N,N-dimethylsulfamate stilbene]							102.7 to 105.6				3.1	14.3	0.366	9.96	7.14	0.987	8.95
COc1cc(/C=C\c2ccc(OC(F)F)c(OS(N)(=O)=O)c2)cc(OC)c1OC [Compound A3-1, (Z)-3,4,5-trimethoxy-4′-difluoromethoxy-3′-sulfamate stilbene]							161.6 to 162.9		4.64		1.8	7.82	9.11	4.8	9	5.21	12.5
COc1cc(/C=C/c2ccc(OC(F)F)c(OS(N)(=O)=O)c2)cc(OC)c1OC [Compound A3-2, (E)-3,4,5-trimethoxy-4′-difluoromethoxy-3′-sulfamate stilbene]							145.5 to 148.6				12.5	8.42	12.8	5.54	9.24	28.2	13.8
C[C@]12CC[C@@H]3c4ccc(OS(N)(=O)=O)cc4CC[C@H]3[C@@H]1CCC2=O [EMATE, 3-(sulfamoyloxy)-estr-1,3,5 (10)-triene-17-one, reference compound]									5.01		25.9						
COc1ccc(CCc2cc(OC)c(OC)c(OC)c2)cc1O [Erianin, 3,4,5-trimethoxy-3′-hydroxy-4′-methoxydiphenylethane, reference compound]	0.207	6.29	0.237	0.425	0.22	0.449											
